Molecules are shown by their SMILES.

We go through 3 molecules from US8153791B2, “Substituted pyrimidinyl oxime kinase inhibitors” (Janssen Pharmaceutica N.V., priority 2005, dated 2012).

Experiment [1] concerns SK-OV-3 ovarian carcinoma. Description: In vitro cell proliferation inhibition, SK-OV-3. It is filed as cell-based. The note with it: Homo sapiens; SK-OV-3 cells, 14C-thymidine incorporation. The text has this: (§1) The ability of a test compound to inhibit unregulated in vitro cell proliferation may be determined by measuring incorporation of ^14C-labelled thymidine into newly synthesized DNA within cell lines derived from carcinomas originating from several tissues. Accordingly, the effect of a test compound on proliferation of cells with a variety of phenotypes may be determined.
(§2) Carcinoma cell lines used include the HeLa cervical adenocarcinoma from the American Type Culture Collection (ATCC Cat. #CCL2), SK-OV-3 ovarian carcinoma (ATCC Cat. #HTB-77), MCF-7 breast carcinoma (ATCC Cat. #HTB-22), BT474 breast carcinoma (ATCC Cat. #HTB-20), SKBR3 breast carcinoma (ATCC Cat. #HTB-30), A431 epidermoid carcinoma (ATCC Cat. #CRL-1555) and NCI-N87 gastric carcinoma (ATCC Cat. #CRL-5822).
(§3) The carcinoma cells are trypsinized and counted. The cells (3000-8000 count) are added to each well of a 96-well CytoStar tissue culture treated scintillating microplate (Amersham #RPNQ0160) in complete medium (100 μL) and the plate is then incubated in complete medium for 24 hrs at 37° C. in an inert atmosphere containing 5% CO2.
(§4) Test compound (1 μL) in 100% DMSO is added to the plate test-wells with DMSO only added to control-wells. The plate is incubated in complete medium for a second 24 hr period at 37° C. in an atmosphere containing 5% CO2.
(§5) An aliquot of a solution of Methyl ^14C-thymidine (56 mC/mmol) (NEN #NEC568 or Amersham #CFA532) and complete medium (20 μL to provide 0.2 μCi/well) is then added to each well and the plate is incubated for a third 24 hr period at 37° C. in an atmosphere containing 5% CO2.
(§6) The plate contents are then discarded, the plate is washed twice with PBS (200 μL) and then PBS (200 μL) is added to each well. The plate is sealed and the degree of methyl ^14C-thymidine incorporation is quantified on a Packard Top Count.
(§7) Cell proliferation of the Hela cell line was measured using the ATP-Lite method as described in the ATP Lite Kit (Perkin-Elmer Kit Number 6106941) or the C^14 method as described above. Cell proliferation of the other cell lines was measured using the C^14 method.
(§8) The term “NT” means that the compound indicated was not tested in a particular cell line. The lack of such testing is not intended to imply a belief that the compound is not otherwise active in a particular cell line or any other cell line not tested.
(In general: Uptake of a labelled nucleoside into DNA is a usual measure of proliferation.)

Another experiment has as its system SKBR3 breast carcinoma. Description: In vitro cell proliferation inhibition, SKBR3. In kind it is cell-based. As to conditions: Homo sapiens, SK-BR-3; SKBR3 cells, 14C-thymidine incorporation; read-out: IC50 SKBR3.
Text: as §1, §2, §3, §4, §5, §6, §7, §8

Experiment [2] has as its system HeLa cervical adenocarcinoma. Nature of the experiment: In vitro cell proliferation inhibition, HeLa. It is filed as cell-based. The note with it: Homo sapiens; HeLa cell line; ATP-Lite method or C14 thymidine method; read-out: HeLa IC50.
Experiment [3] deals with A431 epidermoid carcinoma. Description: In vitro cell proliferation inhibition, A431. In kind it is cell-based. The note with it: Homo sapiens, A-431; A431 cells, 14C-thymidine incorporation; read-out: IC50 A431.
Text: as §1, §2, §3, §4, §5, §6, §7, §8

A further experiment concerns BT474 breast carcinoma. Description: In vitro cell proliferation inhibition, BT474. It is filed as cell-based. As to conditions: Homo sapiens, BT-474; BT474 cells, 14C-thymidine incorporation; read-out: IC50 BT474.
Text: as §1, §2, §3, §4, §5, §6, §7, §8

Another experiment relates to MCF-7 breast carcinoma. Nature of the experiment: In vitro cell proliferation inhibition, MCF-7. The note with it: Homo sapiens, MCF7; MCF-7 cells, 14C-thymidine incorporation. In kind it is cell-based.
Text: as §1, §2, §3, §4, §5, §6, §7, §8

Another experiment deals with T1, EGFR (Homo sapiens, UniProt P00533).
T1 construct: The intracellular portion of EGFR started at nucleotide 2189 (corresponding to amino acid 667) and ended at the termination codon; made in house; host or cells: Sf9 insect cells (baculovirus)
T1 sequence (P00533 669-1210 limits assumed): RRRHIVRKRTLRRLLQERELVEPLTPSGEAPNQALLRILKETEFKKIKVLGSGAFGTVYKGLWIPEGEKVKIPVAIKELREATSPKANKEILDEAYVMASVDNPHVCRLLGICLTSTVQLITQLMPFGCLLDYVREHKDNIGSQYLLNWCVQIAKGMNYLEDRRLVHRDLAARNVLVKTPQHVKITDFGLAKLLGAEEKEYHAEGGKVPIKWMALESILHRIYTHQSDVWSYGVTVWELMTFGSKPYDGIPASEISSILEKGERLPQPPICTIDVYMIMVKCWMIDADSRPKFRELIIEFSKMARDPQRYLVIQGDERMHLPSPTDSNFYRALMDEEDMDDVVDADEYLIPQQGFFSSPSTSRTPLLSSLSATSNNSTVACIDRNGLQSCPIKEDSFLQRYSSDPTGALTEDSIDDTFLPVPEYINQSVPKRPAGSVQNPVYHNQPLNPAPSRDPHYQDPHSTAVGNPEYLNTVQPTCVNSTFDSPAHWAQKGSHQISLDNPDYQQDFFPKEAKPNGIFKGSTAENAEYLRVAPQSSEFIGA
Description: EGFR Kinase Assay.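 Further: recombinant GST-tagged EGFR expressed in Sf9 cells, phosphorylating biotinylated polyGluTyr with γ-33P ATP on Streptavidin Flashplates, 1 h at 30 °C, scintillation counting, inhibition relative to plate maximum and minimum signals.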 In kind it is biochemical.

Experiment [4] concerns N87 gastric carcinoma cells. Description: N87 Human Tumor Xenograft Model. It is filed as in vivo, nu/nu mice. The note with it: treatment groups 5-10, 100 mg/kg oral once daily for 30 days. The text has this: The N87 gastric carcinoma cell line overexpresses HER-2 as a result of gene amplification and forms tumors in nude mice (Kasprzyk P G, Song S U, Di Fiore P P, King C R, Therapy of an animal model of human gastric cancer using a combination of anti-erbB-2 monoclonal antibodies, Cancer Res., 1992, 52, 2771-2776).
Female nu/nu mice (Charles River; 8 to 9 weeks of age) were implanted subcutaneously with from 3×10^6 to 5×10^6 N87 gastric carcinoma cells (obtained from the American Type Culture Collection, ATCC Cat. #CRL-5822) in the flank. Animals were weighed twice weekly during the study and examined frequently.
Tumor size was monitored twice weekly and then daily as the neoplasms reached the target weight range (about 75 mg). Animals were pair-matched when tumors were in the 62 to 126 mg range (group mean tumor size: 70 to 74 mg). Estimated tumor weight was calculated using the formula: […]
A test compound was orally administered daily in the test treatment group after the tumor reached the target weight. For treatment group 1, the test compound was administered once daily for 35 days. For treatment group 2, the test compound was administered once daily for 30 days. For treatment group 3, each dose of test compound was administered once daily for 30 days. For treatment group 4, each dose of test compound was administered once daily for 36 days. For treatment group 5-10, the test compound was administered once daily for 30 days.
Tumor weight was measured daily for subjects (n=8) in the test group and the matched subjects (n=8) in the vehicle-treated group.
The tumor growth inhibition (in percent) was calculated on the last day of the study using the formula: […]
(§9) Statistical significance was evaluated by comparing the vehicle group to the test group using a two tailed Students t test. The term “NC” means that the P value for the treatment group indicated was not calculated. The lack of such calculation is not intended to imply a belief that the activity of the compound is not otherwise statistically significant in this particular cell line or in any other cell line not tested.

For a further experiment, the target named is T2, HER-2 (Homo sapiens, UniProt P04626).
T2 construct: purchased Proqinase (Freiburg, Germany)
T2 sequence (P04626 679-1255): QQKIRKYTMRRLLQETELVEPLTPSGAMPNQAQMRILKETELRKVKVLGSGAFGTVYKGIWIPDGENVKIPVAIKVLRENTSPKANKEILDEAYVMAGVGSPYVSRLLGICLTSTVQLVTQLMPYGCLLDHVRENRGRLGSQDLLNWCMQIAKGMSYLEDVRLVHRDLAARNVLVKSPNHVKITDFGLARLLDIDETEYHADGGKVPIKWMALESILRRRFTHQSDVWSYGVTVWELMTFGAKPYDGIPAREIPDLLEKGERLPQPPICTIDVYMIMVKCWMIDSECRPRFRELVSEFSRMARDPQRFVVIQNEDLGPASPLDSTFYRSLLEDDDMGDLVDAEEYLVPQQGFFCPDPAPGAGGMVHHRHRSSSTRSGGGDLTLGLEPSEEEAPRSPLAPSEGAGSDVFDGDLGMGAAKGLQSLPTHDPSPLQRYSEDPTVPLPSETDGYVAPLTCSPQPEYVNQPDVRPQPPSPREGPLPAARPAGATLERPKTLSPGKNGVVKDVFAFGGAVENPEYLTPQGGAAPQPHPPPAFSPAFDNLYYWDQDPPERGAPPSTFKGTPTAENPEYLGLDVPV
Nature of the experiment: HER-2 Kinase Assay.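 Further: HER2 kinase reaction read by scintillation counting, inhibition scaled between maximum and minimum signals set on each plate, IC50 from inhibition against log concentration.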 It is filed as biochemical. As to conditions: read-out: HER2 IC50.

The subject of experiment [5] is NCI-N87 gastric carcinoma. Description: In vitro cell proliferation inhibition, NCI-N87. It is filed as cell-based. As to conditions: Homo sapiens, NCI-N87; N87 cells, 14C-thymidine incorporation; read-out: IC50 N87.
Text: as §1, §2, §3, §4, §5, §6, §7, §8

The test system of experiment [6] is A431 epidermoid carcinoma cells. Nature of the experiment: A431 Human Tumor Xenograft Model. The note with it: treatment groups 5-10, 100 mg/kg oral once daily for 30 days. It is filed as in vivo, nu/nu mice.
Text: The A431 epidermoid carcinoma cell line overexpresses EGFR, activating signaling pathways responsible for driving the proliferation, invasion and survival of cancer cells and forming tumors in nude mice (Giard D J, Aaronson S A, Todaro G J, Arnstein P, Kersey J H, Dosik H, Parks W P, In vitro cultivation of human tumors: establishment of cell lines derived from a series of solid tumors, J. Natl. Cancer Inst., 1973, 51, 1417-1423; and, Kawamoto T, Sato J D, Le A, Polikoff J, Sato G H, Mendelsohn J, Growth stimulation of A431 cells by epidermal growth factor: identification of high-affinity receptors for epidermal growth factor by an anti-receptor monoclonal antibody, Proc. Natl. Acad. Sci. USA, 1983, 80, 1337-1341).
Female nu/nu mice (Charles River; 8 to 9 weeks of age) were implanted subcutaneously in the flank with 4×10^6 A431 epidermoid carcinoma cells (obtained from the American Type Culture Collection, ATCC Cat. #CRL-1555). Animals were weighed twice weekly during the study and examined frequently.
Tumor size was monitored twice weekly and then daily as the neoplasms reached the target weight range (about 75 mg). Animals were pair-matched when tumors were in the 62 to 126 mg range (group mean tumor size: 70 to 74 mg). Estimated tumor weight was calculated using the formula of Example 4.
A test compound was orally administered daily in the test treatment group after the tumor reached the target weight. For treatment groups 1 and 2, each dose of test compound was administered once daily for 25 days. For treatment group 3, each dose of test compound was administered twice daily for 25 days. For treatment group 4, the test compound was administered twice daily for 30 days. For treatment group 5-10, the test compound was administered once daily for 30 days.
as §9
Background: A xenograft is tissue or cells of one species grown in another, often human tumour cells in immunodeficient mice.

In the case of `Nc1ncnc(Nc2ccc(OCc3cccc(F)c3)c(Cl)c2)c1/C=N/OCCN1CCOCC1` [Cpd 93, (5E)-4-amino-6-[3-chloro-4-(3-fluoro-benzyloxy)-phenylamino]-pyrimidine-5-carbaldehyde O-(2-morpholin-4-yl-ethyl)-oxime], the IC50 (in general, the midpoint of a concentration-inhibition curve) turned out to be 100000 nM in [1]; 20 nM with SKBR3 breast carcinoma; 22100 nM in experiment [2]; 600 nM in experiment [3]; 40 nM with BT474 breast carcinoma; 100000 nM in the experiment on MCF-7 breast carcinoma. Moreover, the figures for the IC50 (on EGFR; on HER-2; in [5]) were 20 nM, 8 nM and 70 nM, respectively. For the same molecule, the “N87 Tumor Growth Inhibition TGI” value in experiment [4] turned out to be 59.9%. The “A431 Tumor Growth Inhibition TGI” value in [6] is 64.0%.

Turning to `Nc1ncnc(Nc2ccc(OCc3cccc(F)c3)c(Cl)c2)c1/C=N/OCCN1CCCCC1` [Cpd 94, (5E)-4-amino-6-[3-chloro-4-(3-fluoro-benzyloxy)-phenylamino]-pyrimidine-5-carbaldehyde O-(2-piperidin-1-yl-ethyl)-oxime], the IC50 was 1000 nM in experiment [1]; 500 nM in the experiment with SKBR3 breast carcinoma; 6100 nM in experiment [2]; 500 nM in the experiment on BT474 breast carcinoma; 1000 nM in the experiment with MCF-7 breast carcinoma; 20 nM against EGFR. The IC50 at HER-2 amounted to 40 nM; in experiment [5], 400 nM. In [4], the “N87 Tumor Growth Inhibition TGI” value is on record as 47.1%. For the same molecule, the “A431 Tumor Growth Inhibition TGI” value in experiment [6] is given as 66%.

Consider `Nc1ncnc(Nc2ccc3c(ccn3Cc3cccc(F)c3)c2)c1/C=N/OCCN1CCOCC1` [Cpd 101, (5E)-4-amino-6-[1-(3-fluoro-benzyl)-1H-indol-5-ylamino]-pyrimidine-5-carbaldehyde O-(2-morpholin-4-yl-ethyl)-oxime], for which the IC50 is 60 nM with SKBR3 breast carcinoma; 25100 nM in experiment [2]; 9 nM in experiment [3]; 50 nM in the experiment on BT474 breast carcinoma; 60 nM at HER-2; 30 nM in [5]. Further, the “N87 Tumor Growth Inhibition TGI” value in [4] is 66%. In addition, in [6], the “A431 Tumor Growth Inhibition TGI” value is recorded as 51%.
